According to ChEMBL document CHEMBL1201862, “PubChem BioAssay data set” (2004):
Active and inactive are the calls of the source.

Tests used:
Cytochrome P450 2C9 = Cytochrome P450 2C9 (Homo sapiens, UniProt P11712); settings: Potency
Cytochrome P450 2D6 = Cytochrome P450 2D6 (Homo sapiens, UniProt P10635); assay: qHTS Assay for Inhibitors and Substrates of Cytochrome P450 2D6. [Related pubchem assays: 410 ]; assay type: ADME; settings: read-out: Potency
[1] = growth suppression of beta-catenin-knockout colon cells, dose response, cell-based, HCT116, human colon tumor (AID 1045); assay type: functional;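 note: HCT116 colon tumor cells with beta catenin knocked out; cells exposed to compound for 60 hours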
X-box-binding protein 1 = X-box-binding protein 1 (Homo sapiens, UniProt P17861); assay type: functional, Cricetulus griseus;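 note: confirmatory dose-response counter-screen serving a CHOP assay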
[2] = growth suppression of PTEN-null colon cells, dose response, cell-based, HCT116 PTEN knockout (AID 1047); assay type: functional;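 note: HCT116 colon tumor cells with PTEN knocked out; cells exposed to compound for 60 hours before readout; potency for loss of cell viability measured by luminescence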
Caspase-3 = biological target: T1, Caspase-3 (Homo sapiens, UniProt P42574); assay: procaspase-3 activation potency of dual hits, dose response, counter-screen for dual procaspase-3/7 activator project, biochemical, absorbance, PC-3 D3A mutant (AID 504328)
T1 sequence (P42574 whole entry): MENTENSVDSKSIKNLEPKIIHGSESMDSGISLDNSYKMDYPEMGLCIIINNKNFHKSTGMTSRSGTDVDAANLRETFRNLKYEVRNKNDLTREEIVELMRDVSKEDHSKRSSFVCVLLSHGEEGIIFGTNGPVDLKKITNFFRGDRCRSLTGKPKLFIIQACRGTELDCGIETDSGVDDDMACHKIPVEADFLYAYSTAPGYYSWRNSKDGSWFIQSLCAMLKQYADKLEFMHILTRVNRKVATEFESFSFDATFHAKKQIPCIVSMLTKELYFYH

Caspase-7 = Caspase-7 (Homo sapiens, UniProt P55210); assay: procaspase-7 activators, dose response, dual procaspase-3/-7 activator project, biochemical, absorbance, human (AID 504330)
[3] = HEp-2 cell cytotoxicity, dose response, cytotoxicity control for RSV inhibitor project, HTS (AID 2410); assay type: functional; settings: human respiratory syncytial virus
[4] = biological target: Female germline-specific tumor suppressor gld-1 (Caenorhabditis elegans, UniProt Q17339); assay: inhibitors of GLD-1 binding to TGE RNA, dose response, biochemical, fluorescence polarization, C. elegans (AID 2802);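 note: fluorescence polarization of labeled TGE RNA bound by purified gld-1 protein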
Sequence of Female germline-specific tumor suppressor gld-1 (Q17339 whole entry): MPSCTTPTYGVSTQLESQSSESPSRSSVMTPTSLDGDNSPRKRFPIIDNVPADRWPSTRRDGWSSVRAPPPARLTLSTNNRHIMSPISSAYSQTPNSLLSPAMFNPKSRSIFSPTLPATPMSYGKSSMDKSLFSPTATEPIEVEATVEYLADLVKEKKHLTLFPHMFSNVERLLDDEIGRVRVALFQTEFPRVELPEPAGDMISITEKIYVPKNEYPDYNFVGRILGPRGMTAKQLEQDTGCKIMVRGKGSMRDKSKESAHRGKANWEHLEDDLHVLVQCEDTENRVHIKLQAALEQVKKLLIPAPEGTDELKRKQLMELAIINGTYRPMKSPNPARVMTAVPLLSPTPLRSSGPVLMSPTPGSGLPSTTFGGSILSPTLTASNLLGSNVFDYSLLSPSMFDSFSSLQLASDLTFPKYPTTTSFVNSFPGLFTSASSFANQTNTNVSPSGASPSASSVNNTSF

H9c2 = assay: cells; assay type: functional, cell-based; settings: Rattus norvegicus, H9c2, Myocardium;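 note: confirmatory concentration-response retest of ultra-high-throughput screening hits for modulation of myocardial damage; cell death induced by hydrogen peroxide oxidative stress; compound pretreatment for 60 min then peroxide exposure for 2 h; potency is for protecting the cells against peroxide damage rather than for killing them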
[5] = biological target: T2, Sentrin-specific protease 1 (Homo sapiens, UniProt Q9P0U3); assay: potency of human SENP1 inhibitors, dose response, biochemical, kinetic FRET (AID 651697); assay type: functional; settings: read-out: IC50_Mean
T2 sequence (Q9P0U3 whole entry): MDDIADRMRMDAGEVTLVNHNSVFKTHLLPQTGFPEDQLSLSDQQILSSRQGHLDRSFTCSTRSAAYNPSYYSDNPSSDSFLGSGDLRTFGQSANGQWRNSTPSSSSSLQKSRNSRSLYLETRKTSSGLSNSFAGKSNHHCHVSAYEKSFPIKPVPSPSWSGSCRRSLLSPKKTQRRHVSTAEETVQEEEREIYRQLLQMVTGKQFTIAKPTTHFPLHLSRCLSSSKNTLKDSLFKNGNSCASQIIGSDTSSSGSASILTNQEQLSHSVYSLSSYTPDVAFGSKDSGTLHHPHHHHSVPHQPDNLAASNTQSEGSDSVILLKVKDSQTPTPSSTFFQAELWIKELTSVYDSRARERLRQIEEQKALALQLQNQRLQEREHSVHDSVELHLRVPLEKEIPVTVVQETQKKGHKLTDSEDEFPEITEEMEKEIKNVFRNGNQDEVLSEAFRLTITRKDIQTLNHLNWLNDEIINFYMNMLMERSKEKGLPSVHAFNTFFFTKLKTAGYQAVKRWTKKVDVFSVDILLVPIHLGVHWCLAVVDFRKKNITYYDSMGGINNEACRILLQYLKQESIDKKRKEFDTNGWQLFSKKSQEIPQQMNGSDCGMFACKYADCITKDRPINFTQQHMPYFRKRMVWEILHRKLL

Protein Rev = Protein Rev (Human immunodeficiency virus type 1 group M subtype B (isolate HXB2)(HIV-1), UniProt P04618); assay: inhibitors of Rev binding to RRE RNA, dose response, biochemical, fluorescence polarization, HIV-1 (AID 434976); design: species or system Human immunodeficiency virus 1
Sequence of Protein Rev (P04618 whole entry, the tested form may be a part): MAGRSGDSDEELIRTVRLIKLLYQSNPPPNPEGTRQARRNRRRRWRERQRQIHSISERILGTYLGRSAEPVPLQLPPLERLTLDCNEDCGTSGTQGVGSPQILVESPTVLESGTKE

[6] = biological target: T2, Sentrin-specific protease 1; assay: Dose response confirmation of small molecule inhibitors of the catalytic domain of the SUMO protease, SENP1 in a FRET assay.; assay type: functional; settings: read-out: IC50_Mean
Estrogen receptor beta = Estrogen receptor beta (Homo sapiens, UniProt Q92731);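 note: recombinant ER-beta bound to coactivator SRC1 peptide in presence of estradiol agonist; inhibitors block coactivator peptide binding and lower the FRET signal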
[7] = biological target: T3, Dual specificity protein phosphatase 6 (Rattus norvegicus, UniProt Q64346); assay type: functional
T3 sequence (Q64346 whole entry): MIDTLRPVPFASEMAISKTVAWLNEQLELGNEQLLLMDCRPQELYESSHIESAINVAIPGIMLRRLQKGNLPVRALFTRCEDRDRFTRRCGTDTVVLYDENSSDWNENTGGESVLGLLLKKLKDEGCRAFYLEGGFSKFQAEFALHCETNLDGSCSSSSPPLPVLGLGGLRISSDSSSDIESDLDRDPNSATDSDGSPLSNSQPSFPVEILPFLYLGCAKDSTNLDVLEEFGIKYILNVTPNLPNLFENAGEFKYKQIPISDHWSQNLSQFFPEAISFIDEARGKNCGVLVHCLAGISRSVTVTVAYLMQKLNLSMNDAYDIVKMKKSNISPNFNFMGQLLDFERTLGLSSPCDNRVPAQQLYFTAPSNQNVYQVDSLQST

[8] = biological target: T4, Tyrosine-protein phosphatase non-receptor type 7 (Homo sapiens, UniProt P35236); assay type: functional
T4 sequence (P35236 whole entry): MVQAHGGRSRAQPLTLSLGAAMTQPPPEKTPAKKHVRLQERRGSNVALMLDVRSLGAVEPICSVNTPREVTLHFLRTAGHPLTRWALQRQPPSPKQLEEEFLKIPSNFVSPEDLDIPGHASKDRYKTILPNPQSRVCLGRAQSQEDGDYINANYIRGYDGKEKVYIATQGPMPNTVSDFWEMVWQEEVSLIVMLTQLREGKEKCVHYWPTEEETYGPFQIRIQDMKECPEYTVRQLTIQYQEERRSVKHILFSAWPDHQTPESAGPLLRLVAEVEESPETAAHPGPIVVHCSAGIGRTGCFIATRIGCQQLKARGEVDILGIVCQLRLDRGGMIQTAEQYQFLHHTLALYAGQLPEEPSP

[9] = biological target: T3, Dual specificity protein phosphatase 6
[10] = biological target: Glyceraldehyde-3-phosphate dehydrogenase (Homo sapiens, UniProt P04406)
Sequence of Glyceraldehyde-3-phosphate dehydrogenase (P04406 whole entry): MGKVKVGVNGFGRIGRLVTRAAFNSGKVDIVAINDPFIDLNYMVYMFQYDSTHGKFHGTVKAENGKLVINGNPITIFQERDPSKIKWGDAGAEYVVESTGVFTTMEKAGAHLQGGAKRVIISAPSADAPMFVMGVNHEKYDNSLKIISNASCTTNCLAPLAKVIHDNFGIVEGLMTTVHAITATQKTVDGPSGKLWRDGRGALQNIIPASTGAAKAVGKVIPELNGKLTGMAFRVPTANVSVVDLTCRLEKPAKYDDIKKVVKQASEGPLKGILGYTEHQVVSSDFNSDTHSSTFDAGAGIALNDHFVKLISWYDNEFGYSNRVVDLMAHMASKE

[11] = biological target: Melanin-concentrating hormone receptor 1 (Homo sapiens, UniProt Q99705); assay: Fluorescence-based counterscreen for antagonists of the G-protein coupled receptor 7 (GPR7): cell-based high throughput dose response assay to identify antagonists of the melanin-concentrating hormone receptor 1 (MCHR1).; assay type: functional
[12] = biological target: Neuropeptides B/W receptor type 1 (Homo sapiens, UniProt P48145); assay: Fluorescence-based dose response cell-based high throughput screening assay to identify antagonists of the G-protein coupled receptor 7 (GPR7). [Related pubchem assays: 1952 (Screening assay (GPR7 antagonists).), 1880 (Summary AID.)]; assay type: functional
[13] = biological target: Voltage-gated N-type calcium channel alpha-1B subunit/Amyloid beta A4 precursor protein-binding family A member 1 (Homo sapiens, UniProt Q00975+Q02410); assay: disruptors of Mint-PDZ/N-type channel peptide interaction – biochemical, HTRF, set 2, SAR follow-up (AID 434980); assay type: functional
Sequence of Voltage-gated N-type calcium channel alpha-1B subunit/Amyloid beta A4 precursor protein-binding family A member 1 (Q00975 whole entry): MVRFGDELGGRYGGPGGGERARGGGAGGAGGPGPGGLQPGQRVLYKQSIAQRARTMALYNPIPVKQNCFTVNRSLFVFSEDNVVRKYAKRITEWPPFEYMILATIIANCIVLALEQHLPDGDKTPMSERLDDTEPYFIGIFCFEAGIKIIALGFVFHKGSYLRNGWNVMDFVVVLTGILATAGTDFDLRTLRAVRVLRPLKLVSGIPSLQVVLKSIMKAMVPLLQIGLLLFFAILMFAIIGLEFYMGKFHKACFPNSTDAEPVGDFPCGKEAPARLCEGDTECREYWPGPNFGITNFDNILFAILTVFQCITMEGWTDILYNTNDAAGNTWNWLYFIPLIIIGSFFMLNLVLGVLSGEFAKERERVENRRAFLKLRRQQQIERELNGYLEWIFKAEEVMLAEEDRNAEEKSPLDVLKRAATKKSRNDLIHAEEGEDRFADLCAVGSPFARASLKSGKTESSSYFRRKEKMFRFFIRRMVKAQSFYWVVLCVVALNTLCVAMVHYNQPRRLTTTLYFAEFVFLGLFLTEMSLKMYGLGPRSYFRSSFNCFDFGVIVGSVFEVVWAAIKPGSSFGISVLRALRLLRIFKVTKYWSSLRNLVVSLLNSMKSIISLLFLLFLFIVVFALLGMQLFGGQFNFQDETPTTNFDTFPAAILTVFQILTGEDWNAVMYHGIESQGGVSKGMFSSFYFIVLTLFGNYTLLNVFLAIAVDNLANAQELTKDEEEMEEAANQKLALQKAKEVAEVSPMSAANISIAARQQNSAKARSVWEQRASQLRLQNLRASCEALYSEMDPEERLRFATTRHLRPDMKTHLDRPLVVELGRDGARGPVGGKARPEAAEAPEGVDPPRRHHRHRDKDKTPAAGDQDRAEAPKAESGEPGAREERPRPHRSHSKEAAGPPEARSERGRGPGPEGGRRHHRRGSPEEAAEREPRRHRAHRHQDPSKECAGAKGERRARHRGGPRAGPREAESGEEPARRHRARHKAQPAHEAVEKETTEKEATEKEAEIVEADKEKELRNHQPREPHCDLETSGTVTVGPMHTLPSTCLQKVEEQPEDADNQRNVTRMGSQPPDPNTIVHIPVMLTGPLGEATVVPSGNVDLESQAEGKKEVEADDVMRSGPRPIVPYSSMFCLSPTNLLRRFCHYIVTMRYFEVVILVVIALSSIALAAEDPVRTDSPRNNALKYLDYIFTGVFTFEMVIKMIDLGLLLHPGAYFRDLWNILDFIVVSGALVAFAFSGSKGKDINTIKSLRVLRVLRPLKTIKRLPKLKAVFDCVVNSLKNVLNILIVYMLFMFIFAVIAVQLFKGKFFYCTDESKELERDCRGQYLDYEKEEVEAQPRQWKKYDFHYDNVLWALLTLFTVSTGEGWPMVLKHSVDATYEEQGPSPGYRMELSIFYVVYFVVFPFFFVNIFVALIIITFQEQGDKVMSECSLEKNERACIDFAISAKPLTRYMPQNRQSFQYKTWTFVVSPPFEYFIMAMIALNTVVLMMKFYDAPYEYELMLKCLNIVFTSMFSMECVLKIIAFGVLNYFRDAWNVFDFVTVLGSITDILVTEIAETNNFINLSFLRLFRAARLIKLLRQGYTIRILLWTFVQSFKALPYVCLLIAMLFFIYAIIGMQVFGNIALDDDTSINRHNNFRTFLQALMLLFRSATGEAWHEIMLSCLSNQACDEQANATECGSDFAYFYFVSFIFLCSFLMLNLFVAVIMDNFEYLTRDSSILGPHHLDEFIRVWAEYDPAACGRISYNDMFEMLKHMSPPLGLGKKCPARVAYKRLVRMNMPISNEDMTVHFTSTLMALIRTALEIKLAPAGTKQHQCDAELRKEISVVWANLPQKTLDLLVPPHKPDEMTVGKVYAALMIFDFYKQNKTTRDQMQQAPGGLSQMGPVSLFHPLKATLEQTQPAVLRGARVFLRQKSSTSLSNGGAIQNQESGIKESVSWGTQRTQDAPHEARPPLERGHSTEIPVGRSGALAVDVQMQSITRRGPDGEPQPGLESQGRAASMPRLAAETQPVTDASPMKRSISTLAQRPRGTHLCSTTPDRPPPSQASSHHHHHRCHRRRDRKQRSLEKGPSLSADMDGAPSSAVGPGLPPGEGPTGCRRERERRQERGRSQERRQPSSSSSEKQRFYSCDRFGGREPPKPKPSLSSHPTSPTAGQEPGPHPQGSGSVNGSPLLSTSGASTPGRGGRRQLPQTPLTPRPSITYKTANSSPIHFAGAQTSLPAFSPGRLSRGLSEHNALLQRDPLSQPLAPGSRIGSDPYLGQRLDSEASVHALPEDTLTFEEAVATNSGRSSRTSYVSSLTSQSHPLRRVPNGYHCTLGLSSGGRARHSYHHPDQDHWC
Sequence of Voltage-gated N-type calcium channel alpha-1B subunit/Amyloid beta A4 precursor protein-binding family A member 1 (Q02410 whole entry): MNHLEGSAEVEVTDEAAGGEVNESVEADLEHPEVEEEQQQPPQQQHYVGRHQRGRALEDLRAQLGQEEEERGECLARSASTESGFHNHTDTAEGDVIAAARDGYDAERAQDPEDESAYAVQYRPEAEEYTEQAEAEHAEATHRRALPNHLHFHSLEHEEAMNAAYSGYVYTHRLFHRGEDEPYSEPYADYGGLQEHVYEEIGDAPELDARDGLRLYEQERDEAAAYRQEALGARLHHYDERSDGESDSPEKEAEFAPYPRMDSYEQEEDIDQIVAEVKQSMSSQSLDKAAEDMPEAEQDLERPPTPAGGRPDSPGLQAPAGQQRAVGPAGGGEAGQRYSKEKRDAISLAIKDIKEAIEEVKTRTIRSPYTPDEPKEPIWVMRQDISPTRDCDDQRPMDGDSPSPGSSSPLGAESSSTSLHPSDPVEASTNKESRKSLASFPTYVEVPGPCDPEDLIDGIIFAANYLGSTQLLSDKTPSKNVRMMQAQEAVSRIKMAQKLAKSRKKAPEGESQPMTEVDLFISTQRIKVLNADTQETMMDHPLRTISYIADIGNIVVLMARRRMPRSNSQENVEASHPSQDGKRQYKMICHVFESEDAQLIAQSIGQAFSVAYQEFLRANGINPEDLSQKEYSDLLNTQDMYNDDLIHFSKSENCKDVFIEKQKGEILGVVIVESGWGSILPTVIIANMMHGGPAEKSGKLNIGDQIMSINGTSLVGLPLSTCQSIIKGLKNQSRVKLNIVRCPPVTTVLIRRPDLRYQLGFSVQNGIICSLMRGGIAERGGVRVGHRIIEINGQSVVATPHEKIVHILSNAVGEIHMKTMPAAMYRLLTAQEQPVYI

[14] = C. albicans growth with fluconazole, confirmation, fluorescence, retest (AID 2467); assay type: functional, cell-based
Protein Tat = Protein Tat (Human immunodeficiency virus type 1 group M subtype B (isolate HXB2)(HIV-1), UniProt P04608); assay type: functional;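 note: tat binding to TAR RNA read out by fluorescence polarization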
Sequence of Protein Tat (P04608 whole entry): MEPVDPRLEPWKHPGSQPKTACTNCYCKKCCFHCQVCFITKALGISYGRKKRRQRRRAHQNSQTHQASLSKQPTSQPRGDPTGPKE

[15] = biological target: Polyadenylate-binding protein 1 (Homo sapiens, UniProt P11940); assay: PABP poly(A) RNA binding inhibitors, primary screen, biochemical, fluorescence polarization, uHTS (AID 2014)
[16] = biological target: Eukaryotic translation initiation factor 4H (Homo sapiens, UniProt Q15056); assay: human eIF4H binding inhibitors, primary screen, translation initiation inhibitor project, biochemical, uHTS, fluorescence polarization (AID 2012)
Genome polyprotein = Genome polyprotein (dengue virus type 2, UniProt P29990); assay: Dengue-2 NS5 methyltransferase inhibitors, primary screen, biochemical, confirmation dose response (AID 588689); assay type: functional
[17] = NIH-3T3 fibroblast cytotoxicity, dose response, cytotoxicity control, cell-based, fluorescence, Alamar Blue, secondary assay (AID 2327); assay type: functional;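 note: NIH-3T3 mouse fibroblasts cultured with fluconazole at 8 µg/mL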

Sequence of Cytochrome P450 2C9 (P11712 whole entry): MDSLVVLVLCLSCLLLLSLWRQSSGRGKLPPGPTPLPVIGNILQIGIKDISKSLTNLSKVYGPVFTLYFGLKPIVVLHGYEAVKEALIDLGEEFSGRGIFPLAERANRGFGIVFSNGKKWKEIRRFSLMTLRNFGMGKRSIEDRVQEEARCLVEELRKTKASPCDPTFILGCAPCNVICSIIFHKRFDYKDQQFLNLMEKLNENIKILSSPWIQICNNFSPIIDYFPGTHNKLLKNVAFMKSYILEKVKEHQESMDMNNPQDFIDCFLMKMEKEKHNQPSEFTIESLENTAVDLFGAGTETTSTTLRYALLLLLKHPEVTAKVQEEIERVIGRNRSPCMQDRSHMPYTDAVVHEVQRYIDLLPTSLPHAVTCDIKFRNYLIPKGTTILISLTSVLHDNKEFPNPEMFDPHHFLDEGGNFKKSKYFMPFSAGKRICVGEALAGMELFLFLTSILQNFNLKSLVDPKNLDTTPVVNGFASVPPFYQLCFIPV

NCCC[C@@H](CC(=O)N[C@@H]1CCCC[C@H]1C(=O)N[C@H](CC(=O)N[C@@H](CCC(=O)O)CC(=O)O)Cc1c[nH]c2ccccc12)NC(=O)C[C@H](CO)NC(=O)[C@@H]1CNCC[C@H]1N
AC50 (Cytochrome P450 2C9): 12.6 µM (inconclusive) | AC50 (Cytochrome P450 2D6): 39.8 µM (inconclusive)

COc1ccc(-c2[nH]ncc2/C=C(/C#N)C(=O)NC2CCCCCC2)cc1
EC50 [1]: 11.3 µM (active) | Absolute IC50 (XBP1) (X-box-binding protein 1): 10 µM | EC50 [2]: 12.6 µM (active)

COc1cc2c(cc1OC)C(C)N(C(=O)c1cc3c(s1)-c1ccccc1OC3)CC2 (stereo not drawn)
EC50 (Caspase-3): > 85.3 µM (inactive) | EC50 (Caspase-7): > 85.3 µM (inactive) | CC50 [3]: 27.4 µM (active)

COc1ccc(Nc2nnc(SCc3cc(=O)n4ccsc4n3)s2)cc1
IC50 [4]: 45.5 µM (inactive) | IC50 (H9c2): 7.45 µM (active) | IC50 [5]: 26.2 µM (inactive) | IC50 (Protein Rev): > 75.4 µM (not active) | IC50 [6]: 16.3 µM (active) | IC50 (Estrogen receptor beta): > 50 µM (not active) | CC50 [3]: 36.5 µM (active)

O=C(O)C1Nc2cc(C(F)(F)F)ccc2S(=O)(=O)N1 (stereo not drawn)
IC50 [7]: > 100 µM (inactive) | IC50 [8]: > 100 µM (not active) | IC50 [9]: > 100 µM (inactive) | IC50 [10]: > 100 µM (not active)

Nc1c(C(=O)NCc2ccc3c(c2)OCO3)nnn1Cc1ccc(Br)cc1
IC50 [11]: > 43.8 µM (not active) | IC50 [12]: > 43.8 µM (not active)

O=C(NCCCO)c1cc(-c2ccco2)nc2ccccc12
IC50 [13]: > 56.8 µM (inactive)

Oc1ccc(/C=N/NP(=S)(c2ccccc2)c2ccccc2)c(O)c1O
EC50 [14]: > 38 µM (not active) | IC50 (Protein Tat): 25.3 µM (inconclusive) | IC50 [15]: > 100 µM (inactive) | IC50 [16]: 65.3 µM (active) | IC50 (Genome polyprotein): > 100 µM (active) | EC50 [17]: > 150 µM (inactive)
